According to ChEMBL document CHEMBL1201862, “PubChem BioAssay data set” (2004):
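Where inhibition never reached the appropriate level, the endpoint shown equals the highest concentration tested. Otherwise, values were interpolated linearly from a five-concentration, 48-hour dose response in 96-well plates. GI50 marks 50% less growth.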 The source made the active and inactive calls. Cut-off read from the data, not from the text of the source: active = GI50 up to about 1.1 µM and inactive = higher.

Key:
Test in all cases: DTP human tumour cell line panel, 48 h
SK-MEL-5 = tested on: SK-MEL-5
CCRF-CEM = tested on: CCRF-CEM
Hs-578T = tested on: Hs-578T
SF-268 = tested on: SF-268
SK-MEL-2 = tested on: SK-MEL-2
COLO 205 = tested on: COLO 205
HCT-116 = tested on: HCT-116
EKVX = tested on: EKVX
NCI-H23 = tested on: NCI-H23
A549 = tested on: A549
LOX IMVI = tested on: LOX IMVI
SR = tested on: SR
786-0 = tested on: 786-0
SW-620 = tested on: SW-620
K562 = tested on: K562
U-251 = tested on: U-251
KM12 = tested on: KM12
SK-MEL-28 = tested on: SK-MEL-28
OVCAR-3 = tested on: OVCAR-3
MDA-MB-231 = tested on: MDA-MB-231

Row | Structure (SMILES) | GI50 (SK-MEL-5) | GI50 (CCRF-CEM) | GI50 (Hs-578T) | GI50 (SF-268) | GI50 (SK-MEL-2) | GI50 (COLO 205) | GI50 (HCT-116) | GI50 (EKVX) | GI50 (NCI-H23) | GI50 (A549) | GI50 (LOX IMVI) | GI50 (SR) | GI50 (786-0) | GI50 (SW-620) | GI50 (K562) | GI50 (U-251) | GI50 (KM12) | GI50 (SK-MEL-28) | GI50 (OVCAR-3) | GI50 (MDA-MB-231)
1 | CC1CCN(CC(=O)N2c3ccccc3Sc3cc4ccccc4cc32)CC1 | > 100 µM (inactive) | 84.7 µM (inactive) | > 100 µM (inactive) | > 100 µM (inactive) | > 100 µM (inactive) | > 100 µM (inactive) | 49.7 µM (inactive) | > 100 µM (inactive) | > 100 µM (inactive) | > 100 µM (inactive) | > 100 µM (inactive) | 54.6 µM (inactive) | > 100 µM (inactive) | > 100 µM (inactive) | > 100 µM (inactive) | > 100 µM (inactive) | 51.9 µM (inactive) | > 100 µM (inactive) | > 100 µM (inactive) | > 100 µM (inactive)
2 | CC1=NN(c2ccccc2)C(=O)C1/N=N/c1ccc(S(N)(=O)=O)cc1 (stereo not given) | > 100 µM (inactive) | > 100 µM (inactive) | > 100 µM (inactive) | > 100 µM (inactive) | > 100 µM (inactive) | > 100 µM (inactive) | > 100 µM (inactive) | > 100 µM (inactive) | > 100 µM (inactive) | > 100 µM (inactive) | > 100 µM (inactive) | > 100 µM (inactive) | > 100 µM (inactive) | > 100 µM (inactive) | > 100 µM (inactive) | > 100 µM (inactive) | > 100 µM (inactive) | > 100 µM (inactive) | > 100 µM (inactive) | > 100 µM (inactive)
3 | CCCNC(=S)N/N=C1\C(=O)Nc2ccccc21 | > 100 µM (inactive) | > 100 µM (inactive) | > 100 µM (inactive) | > 100 µM (inactive) | > 100 µM (inactive) | > 100 µM (inactive) | > 100 µM (inactive) | > 100 µM (inactive) | > 100 µM (inactive) | > 100 µM (inactive) | > 100 µM (inactive) | > 100 µM (inactive) | > 100 µM (inactive) | > 100 µM (inactive) | > 100 µM (inactive) | > 100 µM (inactive) | > 100 µM (inactive) | > 100 µM (inactive) | > 100 µM (inactive) | > 100 µM (inactive)
4 | Cc1cccc2c(=O)c3c(O)cc4c(c3n(C)c12)C=CC(C)(C)O4 | 29.9 µM (inactive) | 22.5 µM (inactive) | 39.4 µM (inactive) | > 100 µM (inactive) | > 100 µM (inactive) | 29 µM (inactive) | 58.9 µM (inactive) | 25.6 µM (inactive) | 33 µM (inactive) | 77.6 µM (inactive) | 40.3 µM (inactive) | 10.4 µM (inactive) | 71.8 µM (inactive) | > 100 µM (inactive) | 11.2 µM (inactive) | > 100 µM (inactive) | 29 µM (inactive) | > 100 µM (inactive) | > 100 µM (inactive) | > 100 µM (inactive)
5 | O=C(CC(C(=O)O)N1CCOCC1)c1ccccc1 (stereo not given) | 19.6 µM (inactive) | 3.37 µM (inactive) | 34.1 µM (inactive) | 19.5 µM (inactive) | 19.1 µM (inactive) | 21.1 µM (inactive) | 14 µM (inactive) | 18.4 µM (inactive) | 20.7 µM (inactive) | 57.8 µM (inactive) | 17.5 µM (inactive) | 16.4 µM (inactive) | 15.1 µM (inactive) | 19.8 µM (inactive) | 18.8 µM (inactive) | 16.7 µM (inactive) |  | 19.5 µM (inactive) | 20 µM (inactive) | 15.3 µM (inactive)
6 | O=C1c2ccccc2C(=O)c2c(NC(=O)C(Cl)CCl)cccc21 (stereo not given) | 9.66 µM (inactive) | 0.163 µM (active) | 31.3 µM (inactive) | 5.7 µM (inactive) | 5.09 µM (inactive) | 6.47 µM (inactive) | 10.9 µM (inactive) | 19.4 µM (inactive) | 4.03 µM (inactive) | 20.4 µM (inactive) | 2.44 µM (inactive) | < 0.01 µM (active) | 2.87 µM (inactive) | 2.86 µM (inactive) | 0.197 µM (active) | 3.33 µM (inactive) | 2.58 µM (inactive) | 17.2 µM (inactive) | 11 µM (inactive) | 6.53 µM (inactive)
7 | Cn1c2ccccc2c(=NNc2ccc(S(N)(=O)=O)cc2)c2ccccc21 | 8.24 µM (inactive) | 4.58 µM (inactive) | 32.7 µM (inactive) | 18.1 µM (inactive) | 10.5 µM (inactive) | 18.7 µM (inactive) | 16.7 µM (inactive) | 12 µM (inactive) | 16 µM (inactive) | 11.7 µM (inactive) | 9.29 µM (inactive) | 8.81 µM (inactive) | 21 µM (inactive) | 21.8 µM (inactive) | 2.49 µM (inactive) | 19 µM (inactive) | 11.2 µM (inactive) | 18.6 µM (inactive) | 19.5 µM (inactive) | 9.23 µM (inactive)
8 | COc1cc(NS(C)(=O)=O)ccc1NCc1c[nH]c2ccc3nc(C)ccc3c12 | 42 µM (inactive) | 17.7 µM (inactive) | 72.1 µM (inactive) | 28.1 µM (inactive) | 23.8 µM (inactive) | 55 µM (inactive) | 42.9 µM (inactive) | > 100 µM (inactive) | 15.8 µM (inactive) | > 100 µM (inactive) | 49.5 µM (inactive) | 4.89 µM (inactive) | 30.4 µM (inactive) | 30.2 µM (inactive) | 0.594 µM (active) | 77.6 µM (inactive) | 48.9 µM (inactive) | > 100 µM (inactive) | 27.6 µM (inactive) | 61.1 µM (inactive)
9 | CN(C)CCCN1c2ccccc2Sc2cnccc21 | 79.8 µM (inactive) | 93.5 µM (inactive) | > 100 µM (inactive) | > 100 µM (inactive) | 28.4 µM (inactive) | 47 µM (inactive) | 43.7 µM (inactive) | > 100 µM (inactive) |  | > 100 µM (inactive) | 65.2 µM (inactive) | 34.2 µM (inactive) | 77.1 µM (inactive) | > 100 µM (inactive) | 68.5 µM (inactive) | > 100 µM (inactive) | > 100 µM (inactive) | 39.1 µM (inactive) | 34 µM (inactive) | 42.1 µM (inactive)
10 | CCN(C(=O)/C=C/c1ccco1)c1ccccc1 | > 100 µM (inactive) | > 100 µM (inactive) | > 100 µM (inactive) | > 100 µM (inactive) | > 100 µM (inactive) | > 100 µM (inactive) | > 100 µM (inactive) | > 100 µM (inactive) | > 100 µM (inactive) | > 100 µM (inactive) | > 100 µM (inactive) | 46.2 µM (inactive) | > 100 µM (inactive) | > 100 µM (inactive) | 46.2 µM (inactive) | > 100 µM (inactive) | > 100 µM (inactive) | > 100 µM (inactive) | > 100 µM (inactive) | > 100 µM (inactive)
11 | CN(C)c1ccc(/C=N/N=C2\C(=O)Nc3c(Cl)cc(Cl)cc32)cc1 | 41.2 µM (inactive) | 27.8 µM (inactive) | 24.7 µM (inactive) |  | 32.1 µM (inactive) | 52.6 µM (inactive) | 39 µM (inactive) | 3.41 µM (inactive) | 46.3 µM (inactive) | 41.9 µM (inactive) | 25.6 µM (inactive) | 6.46 µM (inactive) | 45.9 µM (inactive) | 35.6 µM (inactive) | 20.6 µM (inactive) | 79.3 µM (inactive) | 10.1 µM (inactive) | 47.3 µM (inactive) | 36.6 µM (inactive) | 32.5 µM (inactive)
12 | CCOC(=O)C1C(c2ccc(OC)cc2)c2c(nn(-c3ccccc3)c2O)CC1(C)O (stereo not given) | 2.81 µM (inactive) | 7.1 µM (inactive) | > 100 µM (inactive) | > 100 µM (inactive) | 93.8 µM (inactive) | 16 µM (inactive) | 17.9 µM (inactive) | 51.8 µM (inactive) | 43.5 µM (inactive) | 18.9 µM (inactive) | 0.813 µM (active) | 6.49 µM (inactive) | > 100 µM (inactive) | 18.5 µM (inactive) |  | 53.3 µM (inactive) | 7.1 µM (inactive) | 37.5 µM (inactive) | 80.4 µM (inactive) | 59.2 µM (inactive)
13 | C=C1C(=O)O[C@@H]2CC(CO)=C([C@@H](C)CCCO)[C@@H](OC(=O)/C(C)=C\C)[C@H]12 | 13.9 µM (inactive) | 2.29 µM (inactive) | 21.1 µM (inactive) | 15.6 µM (inactive) | 20.9 µM (inactive) | 14.5 µM (inactive) | 8.07 µM (inactive) | 13.7 µM (inactive) | 13.3 µM (inactive) | 21.6 µM (inactive) | 8.39 µM (inactive) | 1.88 µM (inactive) | 14.8 µM (inactive) | 14.7 µM (inactive) | 5.22 µM (inactive) | 15 µM (inactive) | 17.3 µM (inactive) | 12 µM (inactive) | 7.64 µM (inactive) | 24.9 µM (inactive)
14 | Nc1[nH]c(Nc2ccc(Cl)c(Cl)c2)nc2ncnc1-2 | 14.6 µM (inactive) | 16.1 µM (inactive) | 5.87 µM (inactive) | 11 µM (inactive) | 17.5 µM (inactive) | 20.7 µM (inactive) | 15.1 µM (inactive) | 1.98 µM (inactive) | 18.3 µM (inactive) | 13.9 µM (inactive) | 14.8 µM (inactive) | 11 µM (inactive) | 15.7 µM (inactive) | 18.1 µM (inactive) | 16.1 µM (inactive) | 15.2 µM (inactive) | 13.7 µM (inactive) |  | 11.7 µM (inactive) | 14 µM (inactive)
